Measurements published in the supplement of paper PMC10307832.

Columns and labels:
Assay in all cases: relative viability (nuclei count vs DMSO), 5 days (fraction); higher = more cells survive
Ponatinib + Olaparib = compound: Cc1ccc(C(=O)Nc2ccc(CN3CCN(C)CC3)c(C(F)(F)F)c2)cc1C#Cc1cnc2cccnn12 [Ponatinib] + O=C(c1cc(Cc2n[nH]c(=O)c3ccccc23)ccc1F)N1CCN(C(=O)C2CC2)CC1 [Olaparib] (partner 8 µM)
Method in brief: (§1)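 Nuclei were stained with Hoechst during a one-step fixation (final 0.05% Triton X-100, 1% formaldehyde, 1 ug/ml Hoechst) carried out 5 days after dosing, then counted on 4× images. The cells, lung cancer lines in 1536-well plates, had been dosed by pin tool the day after seeding with one drug alone or a fixed anchor-drug dose plus five library-drug doses (not always all listed) in √10 steps. Relative viability is the nuclei count in treated wells divided by that in vehicle wells, and each value is the median of duplicate plates.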

Pazopanib + Pictilisib = compound: Cc1ccc(Nc2nccc(N(C)c3ccc4c(C)n(C)nc4c3)n2)cc1S(N)(=O)=O [Pazopanib] + CS(=O)(=O)N1CCN(Cc2cc3nc(-c4cccc5[nH]ncc45)nc(N4CCOCC4)c3s2)CC1 [Pictilisib] (partner 1 µM)
Method in brief: as §1

Pazopanib + Vorinostat = compound: Cc1ccc(Nc2nccc(N(C)c3ccc4c(C)n(C)nc4c3)n2)cc1S(N)(=O)=O [Pazopanib] + O=C(CCCCCCC(=O)Nc1ccccc1)NO [Vorinostat] (partner 1 µM)
Method in brief: as §1

Ponatinib + Pemetrexed = compound: Cc1ccc(C(=O)Nc2ccc(CN3CCN(C)CC3)c(C(F)(F)F)c2)cc1C#Cc1cnc2cccnn12 [Ponatinib] + Nc1nc2[nH]cc(CCc3ccc(C(=O)N[C@@H](CCC(=O)O)C(=O)O)cc3)c2c(=O)[nH]1 [Pemetrexed] (partner 0.2 µM)
Method in brief: as §1

Cell Line	relative viability (Ponatinib + Olaparib; first compound 0.002 µM)	relative viability (Ponatinib + Olaparib; first compound 0.006325 µM)	relative viability (Ponatinib + Olaparib; first compound 0.06325 µM)	relative viability (Ponatinib + Olaparib; first compound 0.2 µM)	relative viability (Pazopanib + Pictilisib; first compound 0.01 µM)	relative viability (Pazopanib + Pictilisib; first compound 0.03162 µM)	relative viability (Pazopanib + Pictilisib; first compound 0.1 µM)	relative viability (Pazopanib + Pictilisib; first compound 0.3162 µM)	relative viability (Pazopanib + Pictilisib; first compound 1 µM)	relative viability (Pazopanib + Vorinostat; first compound 0.01 µM)	relative viability (Pazopanib + Vorinostat; first compound 0.03162 µM)	relative viability (Pazopanib + Vorinostat; first compound 0.1 µM)	relative viability (Pazopanib + Vorinostat; first compound 0.3162 µM)	relative viability (Pazopanib + Vorinostat; first compound 1 µM)	relative viability (Ponatinib + Pemetrexed; first compound 0.002 µM)	relative viability (Ponatinib + Pemetrexed; first compound 0.006325 µM)	relative viability (Ponatinib + Pemetrexed; first compound 0.06325 µM)	relative viability (Ponatinib + Pemetrexed; first compound 0.2 µM)
NCI-H358	0.565	0.609	0.648	0.49	0.337	0.333	0.297	0.415	0.395	0.752	0.656	0.782	0.728	0.694	0.168	0.162	0.189	0.174
NCI-H441	0.437	0.477	0.578	0.438	0.449	0.52	0.573	0.603	0.39	0.736	1.06	0.865	0.838	0.645	0.266	0.256	0.297	0.215
NCI-H460	0.335	0.395	0.412	0.397	0.275	0.339	0.345	0.429	0.407	0.719	0.765	0.749	0.677	0.723	0.06	0.062	0.0629	0.0632
NCI-H520	0.335	0.355	0.325	0.225	–	0.302	0.335	0.278	0.254	0.678	0.717	0.742	0.581	0.549	0.59	0.636	0.556	0.407
NCI-H596	0.662	0.72	0.787	0.661	0.383	0.379	0.417	0.381	0.39	0.598	0.634	0.578	0.691	0.642	0.478	0.467	0.48	0.469
NCI-H647	0.521	0.527	0.615	0.522	0.319	0.532	–	0.542	0.508	0.443	0.59	0.706	0.394	0.421	0.203	0.193	0.17	0.203
NCI-H650	0.344	0.417	0.452	0.401	0.789	0.838	0.92	0.836	0.79	0.381	0.466	0.398	0.364	0.485	0.815	0.965	0.948	0.872
NCI-H661	0.724	0.704	0.833	0.737	0.353	0.417	0.366	0.376	0.446	0.773	0.808	0.875	0.759	0.802	0.965	0.968	0.932	0.87
NCI-H838	0.758	0.771	0.795	0.669	0.382	0.476	0.497	0.564	0.589	0.72	0.734	0.816	0.706	0.794	0.234	0.249	0.255	0.227
NCI-H1355	0.668	0.709	0.817	0.739	–	0.412	0.421	0.508	0.638	0.488	0.632	0.696	0.643	0.651	0.983	0.975	1.14	1.07
NCI-H1395	0.446	0.425	0.47	0.433	0.534	0.746	0.685	0.661	0.674	0.586	0.768	0.673	0.734	1.07	0.755	0.819	0.871	0.624
NCI-H1437	0.598	0.595	0.654	0.623	0.343	0.449	0.441	0.499	0.626	0.833	0.778	0.82	0.762	0.75	0.312	0.294	0.32	0.27
NCI-H1650	0.919	0.884	0.916	0.751	0.54	0.696	0.529	0.611	0.661	0.654	0.615	0.605	0.59	0.704	0.345	0.334	0.44	0.36
NCI-H1651	0.197	0.195	0.18	0.177	0.456	0.542	0.494	0.611	0.684	0.536	0.588	0.621	0.534	0.637	0.558	0.627	0.614	0.588
NCI-H1666	0.749	0.76	0.733	0.664	0.369	0.307	0.379	0.421	0.426	1.15	1.09	0.993	1.06	0.909	0.847	0.829	0.928	0.837
NCI-H1734	0.62	0.618	0.673	0.488	0.385	0.448	0.437	0.53	0.461	0.66	0.864	0.882	0.942	0.875	0.394	0.399	0.44	0.395
